# Where two headings read alike, the source gives them in different places.
# Columns and labels:
# [1] = test system: Engineered E. coli AG103 armA; test: Activity against G1405-methylated 16S-rRNA, E. coli AG103 armA; assay type: cell-based
# Source text: (§1) Minimal inhibitory concentrations (MIC) have been determined by broth microdilution assays (CLSI. Methods for Dilution Antimicrobial Susceptibility Tests for Bacteria That Grow Aerobically; Approved Standard—Tenth Edition. CLSI document M07-A10. Wayne, Pa.: Clinical and Laboratory Standards Institute; 2015.).
# AG032 P. aer. APH(3′)-II = test: Antibacterial activity, clinical isolate AG032; assay type: cell-based; design: unit not given here
# Source text: as §1
# (§2) Table 4 and 5 show the antibacterial activity of the compounds of the invention against bacterial reference strains (table 4) and against representative clinical isolates (table 5).
# [2] = test system: Engineered E. coli pH426 rmtC; test: Activity against G1405-methylated 16S-rRNA, E. coli pH426 rmtC; assay type: cell-based
# Source text: as §1
# [3] = test system: AG033 P. aer. APH(3′)-II AAC(6′)-I; test: Antibacterial activity, clinical isolate AG033; assay type: cell-based; design: unit not given here
# Source text: as §1, §2
# [4] = test system: AG215, Klebsiella pneumonia; test: MIC reference strain AG215; assay type: cell-based; conditions: for MIC: Klebsiella pneumoniae, read-out: MIC AG215 K. pneumonia
# Source text: as §1, §2
# (§3) Legend to Tables: GEN, gentamicin; AMK, amikacin; PLZ, plazomicin; APR, apramycin; AG212, Escherichia coli ATCC25922; AG215, Klebsiella pneumonia; AG220, Pseudomonas aeruginosa ATCC27853; AG225, Acinetobacter baumannii pittii; AG290, Enterobacter cloacae; […], Mycobacterium smegmatis. MICs for AG192 have been determined in the presence of 0.5 μg/mL of ampicillin in the medium to mimic the synergistic effect of aminoglycoside and β-lactam antibiotics combination therapy in the treatment of Enterococcus infections in humans.
# [5] = test system: Engineered E. coli pH427 rmtF; test: Activity against G1405-methylated 16S-rRNA, E. coli pH427 rmtF; assay type: cell-based
# Source text: as §1
# [6] = test system: Engineered E. coli pH424 armA; test: Activity against G1405-methylated 16S-rRNA, E. coli pH424 armA; assay type: cell-based
# Source text: as §1
# bacterial ribosomes = test: in-vitro translation assay, bacterial ribosomes; assay type: biochemical
# Source text: (§4) IC50 values for bacterial, human chimeric, and rabbit reticulocyte ribosomes have been determined by in-vitro translation assays as described previously (Proc. Nat. Ac. Sci USA 2012, 109(27):10984-10989).
# (§5) Minimal inhibitory concentrations (MICs, […]) against clinical isolates from Institute of Medical Microbiology, Univ. Zurich, and the IC50 values for bacterial, human mitochondrial and human cytosolic ribosomes are indicated.
# AG031 P. aer. APH(3′)-II = test: Antibacterial activity, clinical isolate AG031; assay type: cell-based; design: unit not given here
# Source text: as §1, §2
# [7] = test system: AG039 MRSA AAC(6′)-I ANT(4′)-I; test: Antibacterial activity, clinical isolate AG039; assay type: cell-based
# Source text: as §1, §2
# AG001 E. coli WT = test: Antibacterial activity, clinical isolate AG001; assay type: cell-based; design: unit not given here
# Source text: as §1, §2
# WT clinical isolates = test: MIC broth microdilution, WT; assay type: cell-based; conditions: wild type; for MIC: read-out: MIC WT, clinical isolates, IMM Univ. Zurich
# Source text: as §1, §5
# (§6) Minimal inhibitory concentrations (μg/ml) against clinical isolates from Institute of Medical Microbiology, Univ. Zurich, and the IC50 values for bacterial, human mitochondrial and human cytosolic ribosomes are indicated.
# (§7) The Minimal inhibitory concentrations (MICs, μg/ml) against clinical isolates from Institute of Medical Microbiology, Univ Zurich, and the IC50 values for bacterial, human mitochondrial and human cytosolic ribosomes are indicated.
# AG055 E. coli WT = test: Antibacterial activity, clinical isolate AG055; assay type: cell-based; design: unit not given here
# Source text: as §1, §2
# AG173 E. coli AAC(3)-IV = test: Antibacterial activity, clinical isolate AG173; assay type: cell-based
# Source text: as §1, §2
# AG003 E. coli AAC(3)-II = test: Antibacterial activity, clinical isolate AG003; assay type: cell-based
# Source text: as §1, §2
# [8] = test system: AG225, Acinetobacter baumannii pittii; test: MIC reference strain AG225; assay type: cell-based; conditions: for MIC: Acinetobacter baumannii, read-out: MIC AG225 A. baumannii
# Source text: as §1, §2, §3
# [9] = test system: human cytosolic ribosomes; test: in-vitro translation assay, human cytosolic ribosomes; assay type: biochemical
# Source text: as §4, §5
# [10] = test system: AG290, Enterobacter cloacae; test: MIC reference strain AG290; assay type: cell-based; conditions: for MIC: Enterobacter cloacae, read-out: MIC AG290 E. cloacae
# Source text: as §1, §2, §3
# [11] = test system: Engineered E. coli pH430 WT; test: Activity, engineered E. coli pH430 WT; assay type: cell-based; conditions: wild type
# Source text: as §1
# isolates carrying apmA = test: MIC broth microdilution, apmA; assay type: cell-based; conditions: apmA resistance gene
# Source text: as §1, with “2015.). […]” for “2015.).”
# as §6, §7
# [12] = test system: clinical isolates carrying AAC(3)-IV; test: MIC broth microdilution, AAC(3)-IV; assay type: cell-based; conditions: clinical isolates, IMM Univ. Zurich, AAC(3)-IV; for MIC: read-out: MIC AAC(3)-IV
# Source text: as §1, §5, §6, §7
# ATCC19977 M. abcessus = test: MIC reference strain ATCC19977; assay type: cell-based; conditions: for MIC: read-out: MIC ATCC19977 M. abcessus
# Source text: as §1, §2
# [13] = test system: AG042 MRSA AAC(6′)-I ANT(4′)-I APH(2′); test: Antibacterial activity, clinical isolate AG042; assay type: cell-based; design: unit not given here
# Source text: as §1, §2
# [14] = test system: Engineered E. coli pH425 rmtB; test: Activity against G1405-methylated 16S-rRNA, E. coli pH425 rmtB; assay type: cell-based
# Source text: as §1
# [15] = test system: SZ380, Mycobacterium smegmatis; test: MIC reference strain SZ380; assay type: cell-based; conditions: reference strain; for MIC: Mycolicibacterium smegmatis, read-out: MIC SZ380 M. smegmatis
# Source text: as §1, §2, §3
# [16] = test system: AG220, Pseudomonas aeruginosa ATCC27853; test: MIC reference strain AG220; assay type: cell-based; conditions: for MIC: Pseudomonas aeruginosa
# Source text: as §1, §2, §3
# AG038 MRSA = test: Antibacterial activity, clinical isolate AG038; assay type: cell-based; design: unit not given here
# Source text: as §1, §2
# [17] = test system: AG212, Escherichia coli ATCC25922; test: MIC reference strain AG212; assay type: cell-based; conditions: for MIC: Escherichia coli
# Source text: as §1, §2, §3
# [18] = test system: human mitochondrial ribosomes; test: in-vitro translation assay, human mitochondrial (human chimeric) ribosomes; assay type: biochemical
# Source text: as §4, §5
# [19] = ATCC27853, reference strain ATCC27853, read-out: MIC AG220 P. aeruginosa
# [20] = reference strain ATCC25922, read-out: MIC AG212 E. coli
SMILES,Activity E. coli AG103 armA [1],Antibacterial activity AG032 P. aer. APH(3′)-II (AG032 P. aer. APH(3′)-II),Activity E. coli pH426 rmtC [2],Antibacterial activity AG033 P. aer. APH(3′)-II AAC(6′)-I [3],Activity E. coli pH427 rmtF [5],Activity E. coli pH424 armA [6],IC50 (bacterial ribosomes) [nM],Antibacterial activity AG031 P. aer. APH(3′)-II (AG031 P. aer. APH(3′)-II),Antibacterial activity AG039 MRSA AAC(6′)-I ANT(4′)-I [7],Antibacterial activity AG001 E. coli WT (AG001 E. coli WT),Antibacterial activity AG055 E. coli WT (AG055 E. coli WT),Antibacterial activity AG173 E. coli AAC(3)-IV (AG173 E. coli AAC(3)-IV),Antibacterial activity AG003 E. coli AAC(3)-II (AG003 E. coli AAC(3)-II),IC50 [9] [µM],Activity E. coli pH430 WT [11],Antibacterial activity AG042 MRSA AAC(6′)-I ANT(4′)-I APH(2′) [13],Activity E. coli pH425 rmtB [14],Antibacterial activity AG038 MRSA (AG038 MRSA),IC50 [18] [µM],MIC ([4]; reference strain) [µg/mL],other results
"CNC1C(OC2OC(CO)C(N)C(O)C2O)OC2CC(N)C(OC3C(N)CC(N)C(O)C3F)OC2C1O (stereo not drawn) [DC168, 5-Deoxy-5-epi-fluoro apramycin]",1,8-16,2,32,2,2,50,8-16,2-4,8,4,128,4,28,2,4,2,2-4,30,,"MIC AG215 K. pneumonia ([4]; reference strain): 1 µg/mL; MIC WT (WT clinical isolates; clinical isolates, IMM Univ. Zurich): 2 µg/mL; MIC AG225 A. baumannii ([8]; reference strain): 4 µg/mL; MIC AG290 E. cloacae ([10]; reference strain): 4 µg/mL; MIC apmA (isolates carrying apmA): 4 µg/mL; MIC AAC(3)-IV [12]: >32 µg/mL; MIC ATCC19977 M. abcessus (ATCC19977 M. abcessus; reference strain): 1 µg/mL; MIC SZ380 M. smegmatis [15]: 0.125 µg/mL; MIC AG220 P. aeruginosa ([16]; reference strain ATCC27853): 4 µg/mL; MIC AG212 E. coli ([17]; reference strain ATCC25922): 4 µg/mL"
"CNC1C(OC2OC(CO)C(N)C(O)C2O)OC2CC(N)C(OC3CC(O)C(N)CC3N)OC2C1O (centres unmarked) [DC169, 5-Deoxy-apramycin]",1,8,4,16,4,2,60,8,2,4,4,32,4,42,4,4,4,2-4,45,2,"MIC (WT clinical isolates): 4 µg/mL; MIC ([8]; reference strain): 4 µg/mL; MIC ([10]; reference strain): 2 µg/mL; MIC (isolates carrying apmA): 16 µg/mL; MIC [12]: > 32 µg/mL; MIC (ATCC19977 M. abcessus): 1 µg/mL; MIC [15]: 0.125 µg/mL; MIC [16, 19]: 4 µg/mL; MIC [17, 20]: 4 µg/mL"
"CNC1C(OC2OC(CO)C(N)C(O)C2O)OC2CC(N)C(OC3C(N)CC(N)C(O)C3F)OC2C1O (centres unmarked) [DC170, 5-Deoxy-5-fluoro apramycin]",2,16,4,32,4,2,60,8-16,4-8,8,4,64,8,74,4,8,4,4-8,62,2,"MIC (WT clinical isolates): 4 µg/mL; MIC ([8]; reference strain): 4 to 8 µg/mL; MIC ([10]; reference strain): 4 µg/mL; MIC apmA (isolates carrying apmA): 32 µg/mL; MIC [12]: > 32 µg/mL; MIC (ATCC19977 M. abcessus): 1 µg/mL; MIC [15]: 0.25 µg/mL; MIC [16, 19]: 8 µg/mL; MIC [17, 20]: 4 µg/mL"
CNC1C(OC2OC(CO)C(N)C(O)C2O)OC2CC(N)C(OC3C(N)CC(N)C(O)C3OCC(O)CN)OC2C1O (centres unmarked) [DC212],,,,,,,100,8,,8,,,,112,,,,4,158,,"MIC [4]: 2 µg/mL; MIC (WT clinical isolates): 4 µg/mL; MIC [8]: 4 µg/mL; MIC [10]: 4 µg/mL; MIC ([16]; ATCC27853, read-out: MIC AG220 P. aeruginosa): 4 µg/mL; MIC ([17]; ATCC25922, read-out: MIC AG212 E. coli): 4 µg/mL"
"CN[C@@H]1[C@@H](O)[C@@H](O[C@@H]2[C@@H](O)[C@H](O[C@H]3OC(CNCCO)=CC[C@H]3N)[C@@H](N)C[C@H]2NC(=O)[C@@H](O)CCN)OC[C@]1(C)O [PLZ, plazomicin, reference compound]",>32,4,,16-32,,,,4,2-4,2-4,2-4,,2-4,,0.5,2,,2-4,,0.25 to 0.5,"MIC ([8]; reference strain): 2 µg/mL; MIC ([10]; reference strain): 0.5 µg/mL; MIC (ATCC19977 M. abcessus): 4 µg/mL; MIC [16, 19]: 2 to 4 µg/mL; MIC [17, 20]: 0.5 to 1 µg/mL"
